The source of these data is US20260166039A1 (SCHRÖDINGER, INC., priority 2022, published 2026).

SMILES strings stand for the structures.

T1 sequence (P30291 299-569 limits assumed): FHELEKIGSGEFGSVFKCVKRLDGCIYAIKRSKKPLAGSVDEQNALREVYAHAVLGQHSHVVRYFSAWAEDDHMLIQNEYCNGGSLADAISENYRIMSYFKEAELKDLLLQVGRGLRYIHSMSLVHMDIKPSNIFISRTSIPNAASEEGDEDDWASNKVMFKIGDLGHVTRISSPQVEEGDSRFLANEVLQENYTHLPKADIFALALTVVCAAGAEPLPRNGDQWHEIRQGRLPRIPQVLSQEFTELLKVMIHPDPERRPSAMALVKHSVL

The first assay concerns the target T1, Wee1 kinase domain (Homo sapiens, UniProt P30291).
T1 construct: Wee1 kinase domain was purchased from Carna (catalog #05-177); purchased Carna 05-177
As to the kind of experiment: Wee1 Kinase Biochemical Assay (ADP-Glo). The settings on record: 1 nM Wee1 enzyme, 15 uM ATP, 4 hours at 25° C. The method in brief:
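Carna Wee1 kinase domain at 1 nM, with 15 uM ATP and 2 ng/mL poly(Lys,Tyr 4:1) substrate in 40 mM Tris-HCl, 20 mM MgCl2, 0.1 mg/mL BSA, 2 mM DTT, run 4 h at 25° C. ADP formation read by ADP-Glo luminescence. Percent inhibition normalised to DMSO and saturating-inhibitor controls.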
The term IC50 denotes the concentration that gives 50% inhibition. Consider `CN(C)[C@H]1CCN(c2ccc(Nc3ncc4c(n3)N(c3ccccn3)[C@@H]3CC(C)(C)OC[C@]43C)cc2)C1` [Example 820, (4bR,8aR)-N-(4-((S)-3-(dimethylamino)pyrrolidin-1-yl)phenyl)-4b,7,7-trimethyl-9-(pyridin-2-yl)-4b,5,7,8,8a,9-hexahydropyrano[3′,4′:4,5]pyrrolo[2,3-d]pyrimidin-2-amine], for which the IC50 was less than 10 nM.
As for `CC(C)n1nc(N2c3nc(Nc4ccc(N5CCN(C)CC5)cc4)ncc3[C@@]3(C)COC(C)(C)C[C@@H]23)ccc1=O` (single isomer, unassigned) [Example 829], the IC50 was less than 10 nM.

The assay is the same for the next values; noted with them: Wee1 kinase domain, 15 uM ATP, ADP-Glo.
In turn, `C[C@H]1COC(=O)N1c1cccc(N2c3nc(Nc4ccc([C@@]5(C)CCN(C)C5)cc4)ncc3[C@]3(C)COC(C)(C)C[C@H]23)n1` (single isomer, unassigned) [Example 348] returned an IC50 of 10 to 100 nM.
As to `C[C@H]1COC(=O)N1c1cccc(N2c3nc(Nc4ccc(N5CCN(C)CC5)cc4)ncc3[C@@]3(C)COC(C)(C)C[C@@H]23)n1` (single isomer, unassigned) [Example 234], the half-inhibitory concentration (IC50) lay within 10 to 100 nM.
The same measure, in the same setting: the same measure for `CNCc1cccc(N2c3nc(Nc4ccc(C(C)(C)C(=O)N(C)C)cc4)ncc3[C@]3(C)COC(C)(C)C[C@H]23)n1` (single isomer, unassigned) [Example 75]: not below 1000 nM.
Take `CN1C[C@@H]2CN(c3ccc(Nc4ncc5c(n4)N(c4cccc(N=S(C)(C)=O)n4)[C@H]4CC(C)(C)OC[C@@]54C)cc3)C[C@@H]2C1` (single isomer, unassigned) [Example 218]: the IC50 lay within 10 to 100 nM.
Compound `CNCc1cccc(N2c3nc(Nc4ccc(N5CCC(F)(F)C5)cc4)ncc3[C@]3(C)COC(C)(C)C[C@H]23)n1` (single isomer, unassigned) [Example 21] yielded an IC50 of 100 to 1000 nM.
Same read-out and setting: for `CN1Cc2cc(Nc3ncc4c(n3)N(c3cccc(N=S(C)(C)=O)n3)[C@H]3CC(C)(C)OC[C@@]43C)ccc2C(C)(C)C1` (single isomer, unassigned) [Example 136] the value was 10 to 100 nM; for `CN1C[C@H]2C[C@@H]1CN2c1ccc(Nc2ncc3c(n2)N(c2cccc(N=S(C)(C)=O)n2)[C@H]2CC(C)(C)OC[C@@]32C)cc1F` (single isomer, unassigned) [Example 175], 100 to 1000 nM; for `CC1(C)C[C@H]2N(c3cccc(N=S(C)(C)=O)n3)c3nc(Nc4ccn5ncnc5c4)ncc3[C@@]2(C)CO1` (single isomer, unassigned) [Example 385], less than 10 nM.
Same read-out and setting: for `CC1(C)C[C@@H]2N(c3cccc(N=S(C)(C)=O)n3)c3nc(Nc4ccc(C5CNC5)nc4)ncc3[C@]2(C)CO1` (single isomer, unassigned) [Example 191] the value was 100 to 1000 nM; for `CN1CCC(n2cc(Nc3ncc4c(n3)N(c3cccc(N=S(C)(C)=O)n3)[C@H]3CC(C)(C)OC[C@@]43C)cn2)C1` (stereo partly drawn) [Example 195, dimethyl((6-((4bS,8aS)-4b,7,7-trimethyl-2-((1-((R)-1-methylpyrrolidin-3-yl)-1H-pyrazol-4-yl)amino)-4b,7,8,8a-tetrahydropyrano[3′,4′:4,5]pyrrolo[2,3-d]pyrimidin-9(5H)-yl)pyridin-2-yl)imino)-16-sulfanone], 100 to 1000 nM; for `CN=S1(=O)CCN(c2ccc(Nc3ncc4c(n3)N(c3cccc(CNC)n3)[C@H]3CC(C)(C)OC[C@@]43C)cc2)CC1` (single isomer, unassigned) [Example 66], 100 to 1000 nM.
The same measure, in the same setting: for `CNCc1cccc(N2c3nc(Nc4ccc([C@H]5CC(=O)N(C)C5)cc4)ncc3[C@]3(C)COC(C)(C)C[C@H]23)n1` (single isomer, unassigned) [Example 67] the value was 100 to 1000 nM; for `C[C@H]1COC(=O)N1c1cccc(N2c3nc(Nc4cn(C5CCN(C)CC5)nn4)ncc3[C@]3(C)COC(C)(C)C[C@H]23)n1` (single isomer, unassigned) [Example 252], 100 to 1000 nM.
The compound `C[C@H]1COC(=O)N1c1cccc(N2c3nc(Nc4ccc(O[C@@H]5CCN(C)C5)cc4)ncc3[C@]3(C)COC(C)(C)C[C@H]23)n1` (single isomer, unassigned) [Example 330] yielded a half-inhibitory concentration (IC50) of 10 to 100 nM.
In turn, `C[C@H]1COC(=O)N1c1cccc(N2c3nc(Nc4ccn(C5CCN(C)CC5)c(=O)c4)ncc3[C@]3(C)COC(C)(C)C[C@H]23)n1` (single isomer, unassigned) [Example 272] displayed an IC50 of 10 to 100 nM.
Same read-out and setting: the same measure for `CNCc1cccc(N2c3nc(Nc4ccc(N5CCCCC5)cc4)ncc3[C@]3(C)COC(C)(C)C[C@H]23)n1` (single isomer, unassigned) [Example 1]: 10 to 100 nM; for `C[C@H]1COC(=O)N1c1cccc(N2c3nc(Nc4ccc(C5CCN(C)CC5)cc4)ncc3[C@]3(C)COC(C)(C)C[C@H]23)n1` (single isomer, unassigned) [Example 250]: 10 to 100 nM.

Staying with this assay, now noted: class symbols; 1 nM Wee1 enzyme, 15 uM ATP, 4 hours at 25° C.
`C[C@H]1CCC(=O)N1c1cccc(N2c3nc(Nc4ccc(N5C[C@@H]6C[C@H]5CN6C)cc4)ncc3[C@]3(C)COC(C)(C)C[C@H]23)n1` [Example 650, (S)-5-methyl-1-(6-((4bS,8aS)-4b,7,7-trimethyl-2-((4-((1S,4S)-5-methyl-2,5-diazabicyclo[2.2.1]heptan-2-yl)phenyl)amino)-4b,7,8,8a-tetrahydropyrano[3′,4′:4,5]pyrrolo[2,3-d]pyrimidin-9(5H)-yl)pyridin-2-yl)pyrrolidin-2-one] registered an IC50 of 10 to 100 nM.
On the same count and under the same terms, for `CN1CCC(n2ccc(Nc3ncc4c(n3)N(c3ccccn3)[C@@H]3CC(C)(C)OC[C@]43C)cc2=O)CC1` (single isomer, unassigned) [Example 806] the value was less than 10 nM; for `CN(C)Cc1cccc(N2c3nc(Nc4ccc(C(C)(C)C(=O)O)cc4)ncc3[C@]3(C)COC(C)(C)C[C@H]23)n1` [Example 610, 2-(4-(((4bS,8aS)-9-(6-((dimethylamino)methyl)pyridin-2-yl)-4b,7,7-trimethyl-4b,5,7,8,8a,9-hexahydropyrano[3′,4′:4,5]pyrrolo[2,3-d]pyrimidin-2-yl)amino)phenyl)-2-methylpropanoic acid], not below 1000 nM; for `CC1(C)C[C@@H]2N(c3cccc(N4CCCC4=O)n3)c3nc(Nc4ccc([C@@H]5CCNC5)cc4)ncc3[C@]2(C)CO1` [Example 633, 1-(6-((4bS,8aS)-4b,7,7-trimethyl-2-((4-((S)-pyrrolidin-3-yl)phenyl)amino)-4b,7,8,8a-tetrahydropyrano[3′,4′:4,5]pyrrolo[2,3-d]pyrimidin-9(5H)-yl)pyridin-2-yl)pyrrolidin-2-one], 10 to 100 nM.
The same measure, in the same setting: the same measure for `CN1C[C@@H]2CN(c3ccc(Nc4ncc5c(n4)N(c4cccc(C(C)(C)O)n4)[C@H]4CC(C)(C)OC[C@@]54C)cc3)C[C@@H]2C1` (single isomer, unassigned) [Example 445]: 100 to 1000 nM; for `CC1(C)C[C@H]2N(c3cccc([C@H]4CCCN4)n3)c3nc(Nc4ccc(N5CCOCC5)cc4)ncc3[C@@]2(C)CO1` (single isomer, unassigned) [Example 528]: less than 10 nM.
The same measure, in the same setting: for `CNCc1cccc(N2c3nc(Nc4ccc(-c5cnn(C)c5)c(C)c4)ncc3[C@]3(C)COC(C)(C)C[C@H]23)n1` (single isomer, unassigned) [Example 463] the value was 100 to 1000 nM; for `CC1(C)C[C@@H]2N(c3cccc(N4CCOC4=O)n3)c3nc(Nc4ccc(N5CCNCC5)cc4)ncc3[C@]2(C)CO1` (single isomer, unassigned) [Example 600], 100 to 1000 nM.
`CN1CC2CC1CN2c1ccc(Nc2ncc3c(n2)N(c2cccc(N=S(C)(C)=O)c2)C2CC(C)(C)OCC32C)cc1` (single isomer, unassigned) [Example 711] gave an IC50 of 100 to 1000 nM.
The same measure, in the same setting: the same measure for `CN1[C@@H]2C[C@H]1CN(c1ccc(Nc3ncc4c(n3)N(c3cccc(C(C)(C)O)n3)[C@H]3CC(C)(C)OC[C@@]43C)cc1)C2` (single isomer, unassigned) [Example 442]: 100 to 1000 nM.
Still for that read-out and setting: the same measure for `CN1C[C@@H]2C[C@H]1CN2c1ccc(Nc2ncc3c(n2)N(c2ccccn2)[C@@H]2CC(C)(C)OC[C@]32C)cc1` [Example 800, (4bR,8aR)-4b,7,7-trimethyl-N-(4-((1S,4S)-5-methyl-2,5-diazabicyclo[2.2.1]heptan-2-yl)phenyl)-9-(pyridin-2-yl)-4b,5,7,8,8a,9-hexahydropyrano[3′,4′:4,5]pyrrolo[2,3-d]pyrimidin-2-amine]: less than 10 nM; for `CNCc1ccnc(N2c3nc(Nc4ccc(N5CCOCC5)cc4)ncc3[C@@]3(C)COC(C)(C)C[C@@H]23)c1` (single isomer, unassigned) [Example 547]: 10 to 100 nM.
`C[C@H]1CCC(=O)N1c1cccc(N2c3nc(Nc4cnn(C5CCN(C)CC5)c4)ncc3C3(C)COC(C)(C)CC23)n1` (stereo in doubt) [Example 555, (S)-5-methyl-1-(6-((4bS,8aS)-4b,7,7-trimethyl-2-((1-(1-methylpiperidin-4-yl)-1H-pyrazol-4-yl)amino)-4b,7,8,8a-tetrahydropyrano[3′,4′:4,5]pyrrolo[2,3-d]pyrimidin-9(5H)-yl)pyridin-2-yl)pyrrolidin-2-one] returned an IC50 of 10 to 100 nM.
Same read-out and setting: for `CN[C@@]1(C)CCc2ccc(N3c4nc(Nc5ccc(N6CCOCC6)cc5)ncc4[C@@]4(C)COC(C)(C)C[C@@H]34)nc21` (single isomer, unassigned) [Example 571] the value was less than 10 nM.
On the same count and under the same terms, for `CNCc1cccc(N2c3nc(Nc4ccc([C@H]5CCNC5)cc4)ncc3[C@]3(C)COC(C)(C)C[C@H]23)n1` (single isomer, unassigned) [Example 451] the value was 100 to 1000 nM; for `CC1(C)C[C@@H]2N(c3cccc([C@H]4COCCN4)n3)c3nc(Nc4ccc(N5CCOCC5)cc4)ncc3[C@]2(C)CO1` [Example 732, (4bS,8aS)-4b,7,7-trimethyl-9-(6-((S)-morpholin-3-yl)pyridin-2-yl)-N-(4-morpholinophenyl)-4b,5,7,8,8a,9-hexahydropyrano[3′,4′:4,5]pyrrolo[2,3-d]pyrimidin-2-amine], 10 to 100 nM.
